Data: US12662491B2 (Redona Therapeutics, Inc., priority 2020, dated 2026)

target: T1, Zcchc11 enzyme (Homo sapiens, UniProt Q5TAX3); test: TUTase assay (Zcchc11 assay, Lin28a-dependent polyuridylation of pre-let-7); format: biochemical; settings: Lin28a-dependent Zcchc11 (Z11) TUTase activity; read-out: Potency Lin28a-dep Z11 IC50
T1 construct: made in house; host or cells: HEK293 cells (Zcchc11); E. coli Rosetta II (LIN28A)
T1 sequence (Q5TAX3 212-1420): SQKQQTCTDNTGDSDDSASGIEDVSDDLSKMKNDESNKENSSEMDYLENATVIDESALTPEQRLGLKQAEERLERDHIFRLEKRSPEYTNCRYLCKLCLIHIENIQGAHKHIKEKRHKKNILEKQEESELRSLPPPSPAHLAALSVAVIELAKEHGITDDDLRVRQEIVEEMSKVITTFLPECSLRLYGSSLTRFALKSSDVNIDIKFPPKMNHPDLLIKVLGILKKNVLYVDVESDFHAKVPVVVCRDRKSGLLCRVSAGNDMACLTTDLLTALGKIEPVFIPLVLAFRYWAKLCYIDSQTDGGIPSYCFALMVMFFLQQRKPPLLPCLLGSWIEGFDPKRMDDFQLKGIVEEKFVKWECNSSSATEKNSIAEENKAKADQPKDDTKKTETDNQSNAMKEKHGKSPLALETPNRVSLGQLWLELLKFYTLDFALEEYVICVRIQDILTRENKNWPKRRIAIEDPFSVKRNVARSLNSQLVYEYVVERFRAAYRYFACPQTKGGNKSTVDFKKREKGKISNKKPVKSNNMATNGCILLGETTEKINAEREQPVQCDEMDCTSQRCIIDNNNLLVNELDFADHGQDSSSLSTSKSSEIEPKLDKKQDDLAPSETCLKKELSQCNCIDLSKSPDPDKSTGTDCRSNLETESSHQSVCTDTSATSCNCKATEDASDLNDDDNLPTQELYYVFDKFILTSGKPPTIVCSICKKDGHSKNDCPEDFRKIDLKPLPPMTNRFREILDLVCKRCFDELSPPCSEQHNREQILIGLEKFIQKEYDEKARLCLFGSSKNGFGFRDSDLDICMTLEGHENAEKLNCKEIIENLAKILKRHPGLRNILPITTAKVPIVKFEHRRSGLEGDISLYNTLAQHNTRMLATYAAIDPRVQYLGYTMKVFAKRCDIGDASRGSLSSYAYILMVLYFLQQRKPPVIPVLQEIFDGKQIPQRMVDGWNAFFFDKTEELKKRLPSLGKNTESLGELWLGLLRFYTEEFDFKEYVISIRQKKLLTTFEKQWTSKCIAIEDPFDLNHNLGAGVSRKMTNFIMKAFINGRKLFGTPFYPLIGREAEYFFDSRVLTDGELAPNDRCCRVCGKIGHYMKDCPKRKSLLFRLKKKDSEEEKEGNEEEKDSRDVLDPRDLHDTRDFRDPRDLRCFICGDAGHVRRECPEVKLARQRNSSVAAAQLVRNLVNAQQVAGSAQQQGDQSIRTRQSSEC
In short: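 Human Zcchc11 residues 212-1420 (HEK293-expressed, MBP tag cleaved, C-terminal FLAG) at 0.2 nM, with 10 nM full-length human LIN28A and 2 nM 5′-fluorescein pre-let-7, preincubated with compound 30 min at room temperature. Reaction started with 5 uM UTP plus 4 nM 3′-rhodamine A20 quench probe; fluorescein loss read kinetically, IC50 from initial rates.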

Question: How did the IC50 turn out when `Cc1cccnc1OC[C@H]1CCCN1c1cc2c(cc1C#N)c(=O)c(C(=O)O)cn2-c1cnn(C)c1` [Compound 248, 6-cyano-1-(1-methylpyrazol-4-yl)-7-[(2R)-2-[[(3-methylpyridin-2-yl)oxy]methyl]pyrrolidin-1-yl]-4-oxoquinoline-3-carboxylic acid] was run?
Answer: ≤ 1000 nM

Question: How did the IC50 turn out when `CN(C)C1CN(c2ccc(-n3cc(C(=O)O)c(=O)c4ccc(N5C(=O)CC[C@@H]5COc5ncccc5Cl)cc43)cn2)C1` [Compound 249, (R)-7-(2-(((3-chloropyridin-2-yl)oxy)methyl)-5-oxopyrrolidin-1-yl)-1-(6-(3-(dimethyl-amino)azetidin-1-yl)pyridin-3-yl)-4-oxo-1,4-dihydro-quinoline-3-carboxylic acid] was run?
Answer: 1000 to 10000 nM

Question: `CN(C)C1CN(c2ccc(-n3cc(C(=O)O)c(=O)c4cc(C#N)c(N5CCC[C@@H]5COc5ncccc5Cl)nc43)cn2)C1` [Compound 250, 7-[(2R)-2-[[(3-chloropyridin-2-yl)oxy]methyl]pyrrolidin-1-yl]-6-cyano-1-[6-[3-(dimethyl-amino)azetidin-1-yl]pyridin-3-yl]-4-oxo-1,8-naphthyridine-3-carboxylic acid] was tested. Which IC50 did it give?
Answer: ≤ 1000 nM

Question: With `Cn1cc(Cn2cc(C(=O)O)c(=O)c3cc(Cl)c(N4CCC[C@@H]4COc4ncccc4Cl)cc32)cn1` [Compound 252, 6-chloro-7-[(2R)-2-[[(3-chloropyridin-2-yl)oxy]methyl]pyrrolidin-1-yl]-1-[(1-methyl-pyrazol-4-yl)methyl]-4-oxoquinoline-3-carboxylic acid] as the compound, how does the IC50 read?
Answer: ≤ 1000 nM

Question: With `CN(C)C1CN(c2cc(Cl)c(-n3cc(C(=O)O)c(=O)c4cc(Cl)c(N5CCC[C@@H]5COc5ncccc5Cl)cc43)cn2)C1` [Compound 253, 6-chloro-1-[4-chloro-6-[3-(dimethyl-amino)azetidin-1-yl]pyridin-3-yl]-7-[(2R)-2-[[(3-chloropyridin-2-yl)oxy]methyl]pyrrolidin-1-yl]-4-oxoquinoline-3-carboxylic acid] as the compound, how does the IC50 read?
Answer: ≤ 1000 nM

Question: For `CN(C)C1CN(c2ccc(-n3cc(C(=O)O)c(=O)c4cc(Cl)c(N5CC(C)(C)C[C@@H]5COc5ncccc5Cl)cc43)cn2)C1` [Compound 254, 6-chloro-7-[(2R)-2-[[(3-chloropyridin-2-yl)oxy]methyl]-4,4-dimethyl-pyrrolidin-1-yl]-1-[6-[3-(dimethyl-amino)azetidin-1-yl]pyridin-3-yl]-4-oxoquinoline-3-carboxylic acid], which IC50 is on record?
Answer: ≤ 1000 nM

Question: Which IC50 does the source give for `CN(C)C1CN(c2ccc(-n3cc(C(=O)O)c(=O)c4cc(Cl)c(N5CCC[C@@H]5COc5ncc6nc[nH]c6c5Cl)cc43)cn2)C1` [Compound 255, 6-chloro-7-[(2R)-2-[({7-chloro-1H-imidazo [4,5-c]pyridin-6-yl}oxy)methyl]pyrrolidin-1-yl]-1-{6-[3-(dimethyl-amino)azetidin-1-yl]pyridin-3-yl}-4-oxoquinoline-3-carboxylic acid] here?
Answer: ≤ 1000 nM

Question: For `CN(C)C1CN(c2ccc(-n3cc(C(=O)O)c(=O)c4cc(Cl)c(N5CCC[C@@H]5COc5nc6ccn(C)c6cc5Cl)cc43)cn2)C1` [Compound 256, 6-chloro-7-[(2R)-2-[([6-chloro-1-methyl-pyrrolo [3,2-b]pyridin-5-yl]oxy)methyl]pyrrolidin-1-yl]-1-[6-[3-(dimethyl-amino)azetidin-1-yl]pyridin-3-yl]-4-oxoquinoline-3-carboxylic acid], which IC50 is on record?
Answer: ≤ 1000 nM

Question: How did the IC50 turn out when `COc1ccc(Cl)c(OCC2N(c3cc4c(cc3Cl)c(=O)c(C(=O)O)cn4-c3ccc(N4CC(N(C)C)C4)nc3)CCC2(C)C)n1` (stereo not drawn) [Compound 257, 6-chloro-7-(2-{[(3-chloro-6-methoxy-pyridin-2-yl)oxy]methyl}-3,3-dimethyl-pyrrolidin-1-yl)-1-{6-[3-(dimethyl-amino)azetidin-1 yl]pyridin-3-yl}-4-oxoquinoline-3-carboxylic acid] was run?
Answer: ≤ 1000 nM

Question: How did the IC50 turn out when `COc1ccc(Cl)c(OCC23CC(CN2c2cc4c(cc2Cl)c(=O)c(C(=O)O)cn4-c2ccc(N4CC(N(C)C)C4)nc2)C3)n1` [Compound 258, 6-chloro-7-(1-(((3-chloro-6-methoxy-pyridin-2-yl)oxy)methyl)-2-azabicyclo [2.1.1]hexan-2-yl)-1-(6-(3-(dimethyl-amino)azetidin-1-yl)pyridin-3-yl)-4-oxo-1,4-dihydro-quinoline-3-carboxylic acid] was run?
Answer: 1000 to 10000 nM

Question: Which IC50 does the source give for `CN(C)C1CN(c2ccc(-n3cc(C(=O)O)c(=O)c4cc(Cl)c(N5CCC(C)(C)C5COc5ncccc5Cl)cc43)cn2)C1` (stereo not drawn) [Compound 259, 6-chloro-7-(2-(((3-chloropyridin-2-yl)oxy)methyl)-3,3-dimethyl-pyrrolidin-1-yl)-1-(6-(3-(dimethyl-amino)azetidin-1-yl)pyridin-3-yl)-4-oxo-1,4-dihydro-quinoline-3-carboxylic acid] here?
Answer: ≤ 1000 nM

Question: Which IC50 does the source give for `CN(C)C1CN(c2ccc(-n3cc(C(=O)O)c(=O)c4cc(C#N)c(N5C(COc6ncccc6F)CCC5(C)C)cc43)cn2)C1` (stereo not drawn) [Compound 264, 6-cyano-1-(6-(3-(dimethyl-amino)azetidin-1-yl)pyridin-3-yl)-7-(5-(((3-fluoropyridin-2-yl)oxy)methyl)-2,2-dimethyl-pyrrolidin-1-yl)-4-oxo-1,4-dihydro-quinoline-3-carboxylic acid] here?
Answer: 1000 to 10000 nM

Question: `COc1ccnc(OC[C@H]2C[C@H]3C[C@H]3N2c2cc3c(cc2F)c(=O)c(C(=O)O)cn3-c2ccc(N(C)C)nc2)c1Cl` [Compound 265, 7-((1R,3R,5R)-3-(((3-chloro-4-methoxy-pyridin-2-yl)oxy)methyl)-2-azabicyclo [3.1.0]hexan-2-yl)-1-(6-(dimethyl-amino)pyridin-3-yl)-6-fluoro-4-oxo-1,4-dihydro-quinoline-3-carboxylic acid] was tested. Which IC50 did it give?
Answer: ≤ 1000 nM

Question: Which IC50 does the source give for `COc1ccc(F)c(OC[C@H]2C[C@H]3C[C@H]3N2c2cc3c(cc2Cl)c(=O)c(C(=O)O)cn3-c2ccc(N(C)C)nc2)n1` [Compound 266, 6-chloro-1-(6-(dimethyl-amino)pyridin-3-yl)-7-((1R,3R,5R)-3-(((3-fluoro-6-methoxy-pyridin-2-yl)oxy)methyl)-2-azabicyclo [3.1.0]hexan-2-yl)-4-oxo-1,4-dihydro-quinoline-3-carboxylic acid] here?
Answer: ≤ 1000 nM

Question: For `COc1ccnc(OC[C@H]2C[C@H]3C[C@H]3N2c2cc3c(cc2Cl)c(=O)c(C(=O)O)cn3-c2ccc(N(C)C)nc2)c1Cl` [Compound 267, 6-chloro-7-((1R,3R,5R)-3-(((3-chloro-4-methoxy-pyridin-2-yl)oxy)methyl)-2-azabicyclo [3.1.0]hexan-2-yl)-1-(6-(dimethyl-amino)pyridin-3-yl)-4-oxo-1,4-dihydro-quinoline-3-carboxylic acid], which IC50 is on record?
Answer: ≤ 1000 nM

Question: How did the IC50 turn out when `COc1ccc(F)c(OC[C@H]2C[C@H]3C[C@H]3N2c2cc3c(cc2F)c(=O)c(C(=O)O)cn3-c2ccc(N(C)C)nc2)n1` [Compound 268, 1-(6-(dimethyl-amino)pyridin-3-yl)-6-fluoro-7-((1R,3R,5R)-3-(((3-fluoro-6-methoxy-pyridin-2-yl)oxy)methyl)-2-azabicyclo [3.1.0]hexan-2-yl)-4-oxo-1,4-dihydro-quinoline-3-carboxylic acid] was run?
Answer: ≤ 1000 nM

Question: How did the IC50 turn out when `CN(C)C1CN(c2ccc(-n3cc(C(=O)O)c(=O)c4cc(Cl)c(N5[C@@H](COc6nc(OC7CC7)ccc6Cl)C[C@H]6C[C@H]65)cc43)cn2)C1` [Compound 270, 6-chloro-7-((1R,3R,5R)-3-(((3-chloro-6-cycloprop-oxypyridin-2-yl)oxy)methyl)-2-azabicyclo [3.1.0]hexan-2-yl)-1-(6-(3-(dimethyl-amino)azetidin-1-yl)pyridin-3-yl)-4-oxo-1,4-dihydro-quinoline-3-carboxylic acid] was run?
Answer: ≤ 1000 nM

Question: For `CN(C)C1CN(c2ccc(-n3cc(C(=O)O)c(=O)c4cc(Cl)c(N5C6CC6C[C@@H]5COc5nc(OC6CC6)ccc5Cl)cc43)cn2)C1` (stereo partly drawn) [Compound 271, 6-chloro-7-((3R)-3-(((3-chloro-6-cycloprop-oxypyridin-2-yl)oxy)methyl)-2-azabicyclo [3.1.0]hexan-2-yl)-1-(6-(3-(dimethyl-amino)azetidin-1-yl)pyridin-3-yl)-4-oxo-1,4-dihydro-quinoline-3-carboxylic acid], which IC50 is on record?
Answer: ≤ 1000 nM
